Reference: patent US20060147397A1, “Composition for preparation for external use on skin and method of using the same” (Kose Corporation, priority 2002, published 2006)

Tests used:
[1] = tested on: Murine cultured B16 melanoma cells; experiment: Melanin generation/formation suppression test based on cell culture (degree of whiteness); set-up: key: ++: distinctively stronger whiteness over the reference; +: apparently stronger whiteness over the reference; ±: slightly stronger whiteness over the reference; −: remained unchanged
Procedure: Murine cultured B16 melanoma cells were used. An appropriate quantity of a 10% FBS-containing MEM medium was placed in two 6-well plates, the B16 melanoma cells were seeded therein and allowed to stand at 37° C. under a carbon dioxide concentration of 5 vol %. Next day, a sample preparation solution was added and mixed therewith so as to adjust the final concentrations of the Cistus ladaniferus L. extract obtained in Example 1, and labdenic acids and methyl esters and ethyl esters thereof obtained in Example 2 to 0 (reference), 5 and 10 μg/mL, and of lily extract (product of Maruzen Pharmaceuticals Co., Ltd.), which is a known whitening agent, to 0 and 100 μg/mL. The medium was exchanged on the fifth day of culture, and the sample preparation solution was added again. The medium was removed next day, the cells were collected from one plate after washing them using a phosphate buffer (pH7), and degree of whitening of the cultured B16 melanoma cells was evaluated according to the criteria shown below. […]
• ++: distinctively stronger whiteness over the reference; • +: apparently stronger whiteness over the reference; • ±: slightly stronger whiteness over the reference; and • −: remained unchanged.
Murine cultured B16 melanoma cells were used. An appropriate quantity of a 10% FBS-containing MEM medium was placed in two 6-well plates, the B16 melanoma cells were seeded therein and allowed to stand at 37° C. under a carbon dioxide concentration of 5 vol %. Next day, a sample preparation solution was added and mixed therewith so as to adjust the final concentrations of the Cistus ladaniferus L. extract obtained in Example 1, and labdenic acids and methyl esters and ethyl esters thereof obtained in Example 2 to 0 (reference), 5 and 10 μg/mL, and of Glycyrrhiza glabra extract (product of Maruzen Pharmaceuticals Co., Ltd.), which is a known whitening agent, to 0 and 100 μg/mL. The medium was exchanged on the fifth day of culture, and the sample preparation solution was added again. The medium was removed next day, the cells were collected from one plate after washing them using a phosphate buffer (pH7), and degree of whitening of the cultured B16 melanoma cells was evaluated according to the criteria shown below.

[2] = tested on: Murine cultured B16 melanoma cells; experiment: Cell survival rate test based on cell culture (crystal violet); conditions: mouse, 5 days, 10 μg/mL
Procedure: Murine cultured B16 melanoma cells were used. An appropriate quantity of a 10% FBS-containing MEM medium was placed in two 6-well plates, the B16 melanoma cells were seeded therein and allowed to stand at 37° C. under a carbon dioxide concentration of 5 vol %. Next day, a sample preparation solution was added and mixed therewith so as to adjust the final concentrations of the Cistus ladaniferus L. extract obtained in Example 1, and labdenic acids and methyl esters and ethyl esters thereof obtained in Example 2 to 0 (reference), 5 and 10 μg/mL, and of lily extract (product of Maruzen Pharmaceuticals Co., Ltd.), which is a known whitening agent, to 0 and 100 μg/mL. The medium was exchanged on the fifth day of culture, and the sample preparation solution was added again. The medium was removed next day, the cells were collected from one plate after washing them using a phosphate buffer (pH7), and degree of whitening of the cultured B16 melanoma cells was evaluated according to the criteria shown below.
On the other plate, the cells were fixed with formalin, and dyed by adding an 1% crystal violet solution. Cell survival rates for the individual sample concentrations were measured using a monocellator (product of Olympus Corporation).
Murine cultured B16 melanoma cells were used. An appropriate quantity of a 10% FBS-containing MEM medium was placed in two 6-well plates, the B16 melanoma cells were seeded therein and allowed to stand at 37° C. under a carbon dioxide concentration of 5 vol %. […] The medium was removed next day, the cells were collected from one plate after washing them using a phosphate buffer (pH7), and degree of whitening of the cultured B16 melanoma cells was evaluated according to the criteria shown below.

[3] = tested on: Human neonatal fibroblast NB1RGB; experiment: Cell activation test based on cell culture (cell proliferation ratio)
Procedure: Human neonatal fibroblast NB1RGB was used. An appropriate quantity of medium was placed in a 24-well plate, the fibroblast NB1RGB was seeded therein and allowed to stand at 37 ° C. under a carbon dioxide concentration of 5 vol %. Next day, a sample preparation solution was added and mixed therewith so as to adjust the final concentrations of the Cistus ladaniferus L. extract obtained in Example 1, and labdenic acids and methyl esters and ethyl esters thereof obtained in Example 2 to 0 (reference), 5 and 10 μg/mL, and of Panax ginseng extract (product of Maruzen Pharmaceuticals Co., Ltd.), which is a known cell activator, to 0 and 100 μg/mL. The medium was exchanged on the fourth day of culture, and the sample preparation solution was added again. The medium was removed next day, the cells were washed using a phosphate buffer and collected, and evaluated in terms of cell proliferation rate based on comparison of the number of fibroblast NB1RGB cells grown in the individual sample preparation solutions with that of the reference. […]
The number of cells grown in each sample preparation solution was compared with the number of cells of the reference, and cell activation effect was evaluated using cell proliferation ratio as an index. The number of cells was counted using a blood cell counter plate.
Human neonatal fibroblast NB1RGB was used. An appropriate quantity of medium was placed in a 24-well plate, the fibroblast NB1RGB was seeded therein and allowed to stand at 37 ° C. under a carbon dioxide concentration of 5 vol %. Next day, a sample preparation solution was added and mixed therewith so as to adjust the final concentrations of the Cistus ladaniferus L. extract obtained in Example 1, and labdenic acids and methyl esters and ethyl esters thereof obtained in Example 2 to 0 (reference), 5 and 10 μg/mL, and of cactus extract, which is a known cell activator, to 0 and 100 μg/mL. The medium was exchanged on the fourth day of culture, and the sample preparation solution was added again. The medium was removed next day, the cells were washed using a phosphate buffer and collected, and evaluated in terms of cell proliferation rate based on comparison of the number of fibroblast NB1RGB cells grown in the individual sample preparation solutions with that of the reference.

[4] = tested on: Murine cultured B16 melanoma cells; experiment: Melanin generation/formation suppression test based on cell culture (degree of whiteness); set-up: key: ++: distinctively stronger whiteness over the reference; +: apparently stronger whiteness over the reference; ±: slightly stronger whiteness over the reference; −: remained unchanged; remark: listed apart in the source
[5] = final concentration 5 μg/mL + lily extract 100 μg/mL
[6] = final concentration 10 μg/mL, lily extract 0 μg/mL
[7] = final concentration 5 μg/mL + Panax ginseng extract 100 μg/mL
[8] = final concentration 5 μg/mL, additional concentration of cactus extract 100 μg/mL, vs reference
[9] = final concentration 10 μg/mL, Panax ginseng extract 0 μg/mL
[10] = final concentration 10 μg/mL, cactus extract 0 μg/mL, vs reference
[11] = final concentration 5 μg/mL + Glycyrrhiza glabra extract 100 μg/mL
[12] = final concentration 10 μg/mL, Glycyrrhiza glabra extract 0 μg/mL

| SMILES | Degree of whiteness [1, 5] | Degree of whiteness [1, 6] | Cell survival rate [2] [%] | Cell-activation rate [3, 7] [%] | Cell-activation rate [3, 8] [%] | Cell-activation rate [3, 9] [%] | Cell-activation rate [3, 10] [%] | Degree of whiteness [4, 11] | Degree of whiteness [4, 12] |
| --- | --- | --- | --- | --- | --- | --- | --- | --- | --- |
| CC1=C(CCC(C)CC(=O)O)C2(C)CCCC(C)(C)C2CC1 (stereo not drawn) [Compound 1, labd-8-en-15-oic acid] | ++ | + | 94 | 329 | 310 | 128 | 128 | ++ | + |
| CC1=CCC2C(C)(C)CCCC2(C)C1CCC(C)CC(=O)O (stereo not drawn) [Compound 4, labd-7-en-15-oic acid] | ++ | + | 93 | 322 | 315 | 130 | 130 | ++ | + |
| C=C1CCC2C(C)(C)CCCC2(C)C1CCC(C)CC(=O)O (stereo not drawn) [Compound 7, labd-8(17)-en-15-oic acid] | ++ | + | 98 | 333 | 170 | 135 | 135 | ++ | + |
